In US20110301142A1, “ANTAGONISTS OF LYSOPHOSPHATIDIC ACID RECEPTORS” (priority 2008, published 2011):

Molecular target: T1, human LPA1 (Homo sapiens, UniProt Q92633)
T1 construct: the full-length cDNA for human LPA1 was obtained by PCR of the reverse transcription reaction; expressed in transfected cells
Assay: LPA1 calcium flux assay (HLPA1 Ca Flux)
Assay type: cell-based
Conditions: Human LPA1 expressing CHO cells, stimulated with 10 nM LPA
Protocol: A 1.1 kb cDNA encoding the human LPA1 receptor was cloned from human lung. Human lung RNA (Clontech Laboratories, Inc. USA) was reverse transcribed using the RETROscript kit (Ambion, Inc.) and the full-length cDNA for human LPA1 was obtained by PCR of the reverse transcription reaction. The nucleotide sequence of the cloned human LPA1 was determined by sequencing and confirmed to be identical to the published human LPA1 sequence (An et al. Biochem. Biophys. Res. Commun. 231:619 (1997). The cDNA was cloned into the pcDNAS/FRT expression plasmid and transfected in CHO cells using lipofectamine 2000 (Invitrogen Corp., USA). Clones stably expressing human LPA1 were selected using hygromycin and identified as cells that show Ca-influx in response to LPA.
Human LPA1 or LPA3 expressing CHO cells are seeded at 20,000-45,000 cells per well in a 96-well poly-D-lysine coated plate one or two days before the assay. Prior to the assay, the cells are washed once with PBS and then cultured in serum-free media overnight. On the day of the assay, a calcium indicator dye (Calcium 4, Molecular Devices) in assay buffer (HBSS with Ca^2+ and Mg^2+ and containing 20 mM Hepes and 0.3% fatty-acid free human serum albumin) is added to each well and incubation continued for 1 hour at 37° C. 10 μl of test compounds in 2.5% DMSO are added to the cells and incubation continued at room temperature for 30 minutes. Cells are the stimulated by the addition of 10 nM LPA and intracellular Ca^2+ measured using the Flexstation 3 (Molecular Devices). IC50s are determined using Graphpad prism analysis of drug titration curves.

T1 sequence (Q92633 whole entry): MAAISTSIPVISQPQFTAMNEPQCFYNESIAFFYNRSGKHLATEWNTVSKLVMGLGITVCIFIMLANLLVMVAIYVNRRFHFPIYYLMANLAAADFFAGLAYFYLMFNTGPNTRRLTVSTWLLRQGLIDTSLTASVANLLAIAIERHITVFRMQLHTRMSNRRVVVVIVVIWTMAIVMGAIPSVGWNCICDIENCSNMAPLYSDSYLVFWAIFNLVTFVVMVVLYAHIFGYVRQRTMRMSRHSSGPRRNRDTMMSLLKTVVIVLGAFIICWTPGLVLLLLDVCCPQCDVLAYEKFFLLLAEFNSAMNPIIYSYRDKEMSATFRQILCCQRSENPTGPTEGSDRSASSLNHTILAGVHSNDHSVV

Row | SMILES | IC50 [nM]
1 | Cc1noc(-c2cccc(-c3cc(CC(=O)O)ccc3F)c2)c1NC(=O)OC(C)c1ccccc1Cl (stereo not shown) [Compound 1-42, (3′-{4-[1-(2-Chloro-phenyl)-ethoxycarbonylamino]-3-methyl-isoxazol-5-yl}-6-fluoro-biphenyl-3-yl)-acetic acid] | 1000 to 50000
2 | Cc1noc(-c2ccc(-c3cncc(C(=O)O)c3)cc2)c1NC(=O)OC(C)c1ccccc1Cl (stereo not shown) [Compound 1-55, 5-(4-{4-[1-(2-Chloro-phenyl)-ethoxycarbonylamino]-3-methyl-isoxazol-5-yl}-phenyl)-nicotinic acid] | < 300
3 | Cc1noc(-c2ccc(CSc3cccc(CC(=O)O)c3)cc2)c1NC(=O)OC(C)c1ccccc1Cl (stereo not shown) [Compound 1-18, [3-(4-{4-[1-(2-Chloro-phenyl)-ethoxycarbonylamino]-3-methyl-isoxazol-5-yl}-benzylsulfanyl)-phenyl]-acetic acid] | < 300
4 | Cc1noc(-c2ccc(Cc3cc(CC(=O)O)ccc3F)cc2)c1NC(=O)O[C@H](C)c1ccccc1F [Compound 1-82, [4-Fluoro-3-(4-{4-[(R)-1-(2-fluoro-phenyl)-ethoxycarbonylamino]-3-methyl-isoxazol-5-yl}-benzyl)-phenyl]-acetic acid] | 300 to 1000
5 | Cc1noc(-c2cccc(-c3ccccc3CC(=O)O)c2)c1NC(=O)OC(C)c1ccccc1Cl (stereo not shown) [Compound 1-44, (3′-{4-[1-(2-Chloro-phenyl)-ethoxycarbonylamino]-3-methyl-isoxazol-5-yl}-biphenyl-2-yl)-acetic acid] | 1000 to 50000
6 | Cc1noc(-c2ccc(CN3CC(C(=O)O)C3)cc2)c1NC(=O)O[C@H](C)c1ccccc1 [Compound 1-140] | 1000 to 50000
7 | COc1ncc(CC(=O)O)cc1-c1cccc(-c2onc(C)c2NC(=O)OC(C)c2ccccc2Cl)c1 (stereo not shown) [Compound 1-38, [5-(3-{4-[1-(2-Chloro-phenyl)-ethoxycarbonylamino]-3-methyl-isoxazol-5-yl}-phenyl)-6-methoxy-pyridin-3-yl]acetic acid] | 1000 to 50000
8 | Cc1noc(-c2ccc(Sc3cccc(CC(=O)O)c3)cc2)c1NC(=O)O[C@H](C)c1ccccc1F [Compound 1-106, [3-(4-{4-[(R)-1-(2-Fluoro-phenyl)-ethoxycarbonylamino]-3-methyl-isoxazol-5-yl}-phenylsulfanyl)-phenyl]-acetic acid] | 300 to 1000
9 | Cc1noc(-c2cccc(-c3cncc(C(=O)O)c3)c2)c1NC(=O)OC(C)c1ccccc1Cl (stereo not shown) [Compound 1-37, 5-(3-{4-[1-(2-Chloro-phenyl)-ethoxycarbonylamino]-3-methyl-isoxazol-5-yl}-phenyl)-nicotinic acid] | 1000 to 50000
10 | CCOC(=O)Cc1ccc(-c2ccc(-c3onc(C)c3NC(=O)OC(C)c3ccccc3F)cn2)cc1 (stereo not shown) [Compound 1-47] | 300 to 1000
11 | Cc1noc(-c2ccc(-c3ccc(C(=O)O)cc3)cc2)c1NC(=O)OC(C)C [Compound 1-125, 4′-(4-Isopropoxycarbonylamino-3-methyl-isoxazol-5-yl)-biphenyl-4-carboxylic acid] | 1000 to 50000
12 | Cc1noc(-c2ccc(-c3cccc(C(=O)O)c3)cc2)c1NC(=O)OC1CCc2ccccc21 (stereo not shown) [Compound 1-16, 4′-[4-(Indan-1-yloxycarbonylamino)-3-methyl-isoxazol-5-yl]-biphenyl-3-carboxylic acid] | > 50000
13 | Cc1noc(-c2ccc3cc(-c4ccc(CSCCC(=O)O)cc4)ccc3c2)c1NC(=O)OC(C)c1ccccc1Cl (stereo not shown) [Compound 3-2, 3-[4-(6-{4-[1-(2-Chloro-phenyl)-ethoxycarbonylamino]-3-methyl-isoxazol-5-yl}-naphthalen-2-yl)-benzylsulfanyl]-propionic acid] | 300 to 1000
14 | Cc1noc(-c2cccc(C3CCC(C(=O)O)CC3)c2)c1NC(=O)OC(C)c1ccccc1Cl (stereo not shown) [Compound 1-46, 4-(3-{4-[1-(2-Chloro-phenyl)-ethoxycarbonylamino]-3-methyl-isoxazol-5-yl}-phenyl)-cyclohexanecarboxylic acid] | < 300
15 | Cc1noc(-c2ccc(Cc3ccc(C(=O)NC4CC4)cc3)cc2)c1NC(=O)OC(C)c1ccccc1Cl (stereo not shown) [Compound 2-1, {5-[4-(4-Cyclopropylcarbamoyl-benzyl)-phenyl]-3-methyl-isoxazol-4-yl}-carbamic acid 1-(2-chloro-phenyl)-ethyl ester] | < 300
16 | Cc1noc(-c2ccc(Sc3ccccc3CC(=O)O)cc2)c1NC(=O)O[C@H](C)c1ccccc1F [Compound 1-107, [2-(4-{4-[(R)-1-(2-Fluoro-phenyl)-ethoxycarbonylamino]-3-methyl-isoxazol-5-yl}-phenylsulfanyl)-phenyl]-acetic acid] | 1000 to 50000

Row | SMILES | IC50 [nM]
17 | Cc1noc(-c2ccc(Cc3cccc(C(=O)O)c3)cc2)c1NC(=O)OCc1ccccc1Br [Compound 1-6, 3-{4-[4-(2-Bromo-benzyloxycarbonylamino)-3-methyl-isoxazol-5-yl]-benzyl}-benzoic acid] | 1000 to 50000
18 | Cc1noc(-c2cccc(-c3cccc(C(=O)O)n3)c2)c1NC(=O)OC(C)c1ccccc1Cl (stereo not shown) [Compound 1-36, 6-(3-{4-[1-(2-Chloro-phenyl)-ethoxycarbonylamino]-3-methyl-isoxazol-5-yl}-phenyl)-pyridine-2-carboxylic acid] | 300 to 1000
19 | Cc1noc(-c2ccc(-c3ccc(CC(=O)O)cc3)cc2)c1NC(=O)OC(C)(C)C [Compound 1-136, [4′-(4-tert-Butoxycarbonylamino-3-methyl-isoxazol-5-yl)-biphenyl-4-yl]-acetic acid] | 300 to 1000
20 | Cc1noc(-c2ccc(Sc3ccc(CC(=O)O)cn3)cc2)c1NC(=O)O[C@H](C)c1ccccc1F [Compound 1-108, [6-(4-{4-[(R)-1-(2-Fluoro-phenyl)-ethoxycarbonylamino]-3-methyl-isoxazol-5-yl}-phenylsulfanyl)-pyridin-3-yl]-acetic acid] | < 300
21 | Cc1noc(-c2csc(-c3ccccc3CC(=O)O)n2)c1NC(=O)O[C@H](C)c1ccccc1F [Compound 3-5, [2-(4-{4-[(R)-1-(2-Fluoro-phenyl)-ethoxycarbonylamino]-3-methyl-isoxazol-5-yl}-thiazol-2-yl)-phenyl]acetic acid] | 1000 to 50000
22 | Cc1noc(-c2ccc(OCc3ccc(C(=O)O)cc3)cc2)c1NC(=O)O[C@H](C)c1ccccc1F [Compound 1-104, 4-(4-{4-[(R)-1-(2-Fluoro-phenyl)-ethoxycarbonylamino]-3-methyl-isoxazol-5-yl}-phenoxymethyl)-benzoic acid] | 1000 to 50000
23 | CC(=O)NC(=N)Cc1ccc(-c2ccc(-c3onc(C)c3NC(=O)O[C@H](C)c3ccccc3F)cc2)cc1 [Compound 2-7, {5-[4′-(2-Acetylamino-2-imino-ethyl)-biphenyl-4-yl]-3-methyl-isoxazol-4-yl}-carbamic acid (R)-1-(2-fluoro-phenyl)-ethyl ester] | < 300
24 | Cc1noc(-c2ccc(Cc3ccccc3CC(=O)O)cc2)c1NC(=O)OC(C)c1ccccc1Cl (stereo not shown) [Compound 1-22, [2-(4-{4-[1-(2-Chloro-phenyl)-ethoxycarbonylamino]-3-methyl-isoxazol-5-yl}-benzyl)-phenyl]-acetic acid] | < 300
25 | Cc1noc(-c2cccc(-c3ccc(CC(=O)O)cc3)c2)c1NC(=O)OC(C)c1ccccc1Cl (stereo not shown) [Compound 1-39, (3′-{4-[1-(2-Chloro-phenyl)-ethoxycarbonylamino]-3-methyl-isoxazol-5-yl}-biphenyl-4-yl)-acetic acid] | 1000 to 50000
26 | Cc1noc(-c2ccc(-c3ccc(C(C)(C)C(=O)O)cc3)cc2)c1NC(=O)OC(C)c1ccccc1Cl (stereo not shown) [Compound 1-72, 2-(4′-{4-[1-(2-Chloro-phenyl)-ethoxycarbonylamino]-3-methyl-isoxazol-5-yl}-biphenyl-4-yl)-2-methyl-propionic acid] | < 300
27 | Cc1cccc(COC(=O)Nc2c(C)noc2-c2ccc(-c3cccc(C(=O)O)c3)cc2)n1 [Compound 1-13, 4′-[3-Methyl-4-(6-methyl-pyridin-2-ylmethoxycarbonylamino)-isoxazol-5-yl]-biphenyl-3-carboxylic acid] | 1000 to 50000
28 | COC(=O)Cn1nnc(-c2ccc(-c3onc(C)c3NC(=O)O[C@H](C)c3ccccc3F)cc2)n1 [Compound 1-134, [5-(4-{4-[(R)-1-(2-Fluoro-phenyl)-ethoxycarbonylamino]-3-methyl-isoxazol-5-yl}-phenyl)-tetrazol-2-yl]-acetic acid methyl ester] | 1000 to 50000
29 | Cc1noc(-c2ccc(-c3ccc(CC(=O)O)cc3)cc2)c1NC(=O)OC(C)c1c(Cl)cccc1Cl (stereo not shown) [Compound 1-101, (4′-{4-[1-(2,6-Dichloro-phenyl)-ethoxycarbonylamino]-3-methyl-isoxazol-5-yl}-biphenyl-4-yl)-acetic acid] | 1000 to 50000
30 | CCOC(=O)Cc1ccc(Oc2ccc(-c3onc(C)c3NC(=O)O[C@H](C)c3ccccc3F)cc2)cc1 [Compound 1-83, [4-(4-{4-[(R)-1-(2-Fluoro-phenyl)-ethoxycarbonylamino]-3-methyl-isoxazol-5-yl}-phenoxy)-phenyl]-acetic acid ethyl ester] | 300 to 1000
31 | CCOC(=O)C(C)c1ccc(-c2ccc(-c3onc(C)c3NC(=O)OC(C)c3ccccc3Cl)cc2)cc1 (stereo not shown) [Compound 1-70, 2-(4′-{4-[1-(2-Chloro-phenyl)-ethoxycarbonylamino]-3-methyl-isoxazol-5-yl}-biphenyl-4-yl)-propionic acid ethyl ester] | < 300
